By MIC is commonly meant the lowest concentration found to suppress growth.

We go through nine compounds from ChEMBL document CHEMBL4477227, “Synthesis and antibacterial evaluation of macrocyclic diarylheptanoid derivatives” (Bioorg Med Chem Lett, 2016).

In brackets after ≈: the same amount, converted by molar mass.

The test system of test [1] is Escherichia coli. Put plainly: Antibacterial activity against Escherichia coli K-12 by microbroth dilution method. Format: functional. A general note: In broth dilution the organism is exposed to a series of concentrations in liquid medium.
The next test relates to Proteus mirabilis. The experiment in a line: Antibacterial activity against Proteus mirabilis ATCC 25933 by microbroth dilution method. In kind it is functional.
For a further test, the system named is Pseudomonas aeruginosa. Put plainly: Antibacterial activity against Pseudomonas aeruginosa PAO1 by microbroth dilution method. In kind it is functional.
For another test, the system named is Burkholderia cepacia. The experiment in a line: Antibacterial activity against Burkholderia cepacia ATCC 25416 by microbroth dilution method. In kind it is functional.
The test system of a further test is Bacillus subtilis. Put plainly: Antibacterial activity against Bacillus subtilis ATCC 23857 by microbroth dilution method. In kind it is functional.
The test system of a further test is Klebsiella pneumoniae. The experiment in a line: Antibacterial activity against Klebsiella pneumoniae ATCC 33495 by microbroth dilution method. Format: functional.
The test system of test [2] is Staphylococcus aureus. Put plainly: Antibacterial activity against methicillin-sensitive Staphylococcus aureus ATCC 29213 by microbroth dilution method. The settings on record: Staphylococcus aureus, ATCC 29213; read-out: MIC. Format: functional.
Test [3] deals with Escherichia coli. The experiment in a line: Antibacterial activity against Escherichia coli harboring TolC deletion mutant by microbroth dilution method. Format: functional.
A further test has as its system Proteus vulgaris. Put plainly: Antibacterial activity against Proteus vulgaris ATCC 33420 by microbroth dilution method. In kind it is functional.
Test [4] relates to Mycobacterium tuberculosis. Put plainly: Antitubercular activity against Mycobacterium tuberculosis H37Rv by microbroth dilution method. The settings on record: Mycobacterium tuberculosis, H37Rv; read-out: MIC. In kind it is functional.
For the next test, the system named is Bacillus anthracis. The experiment in a line: Antibacterial activity against Bacillus anthracis Sterne 34F2 by microbroth dilution method. Format: functional. The settings on record: Bacillus anthracis, Sterne 34F2; read-out: MIC.
The next test concerns Acinetobacter baumannii. Put plainly: Antibacterial activity against Acinetobacter baumannii ATCC 19606 by microbroth dilution method. The settings on record: Acinetobacter baumannii, ATCC 19606 = CIP 70.34 = JCM 6841; read-out: MIC. In kind it is functional, ATCC 19606 = CIP 70.34 = JCM 6841.
Another test relates to Streptococcus pneumoniae. The experiment in a line: Antibacterial activity against Streptococcus pneumoniae R6 by microbroth dilution method. The settings on record: Streptococcus pneumoniae, R6; read-out: MIC. Format: functional.
In the next test the test system is Enterococcus faecalis. Put plainly: Antibacterial activity against Enterococcus faecalis ATCC 33186 by microbroth dilution method. Format: functional. The settings on record: Enterococcus faecalis, ATCC 33186; read-out: MIC.
A further test relates to Streptococcus pyogenes. The experiment in a line: Antibacterial activity against Streptococcus pyogenes ATCC 700294 by microbroth dilution method. The settings on record: Streptococcus pyogenes, ATCC 700294; read-out: MIC. Format: functional.
Test [5] relates to Staphylococcus aureus. Put plainly: Antibacterial activity against methicillin-resistant Staphylococcus aureus NRS70 by microbroth dilution method. In kind it is functional. The settings on record: Staphylococcus aureus, NRS70; read-out: MIC.
[6] abbreviates: Bacillus subtilis, ATCC 23857, read-out: MIC.
Where [7] appears, read: Escherichia coli, read-out: MIC.

Turning to `COc1ccc2cc1Oc1cc(ccc1OC)CCC(N[C@@H]1CCCc3ccccc31)CCCC2` (stereo in doubt; 25), the MIC was greater than 100 µg/mL with Escherichia coli [1]; greater than 100 µg/mL in the test with Proteus mirabilis; greater than 100 µg/mL in the test with Pseudomonas aeruginosa; greater than 100 µg/mL against Burkholderia cepacia; 6.25 µg/mL (≈ 13.3 µM) with Bacillus subtilis; greater than 100 µg/mL in the test with Klebsiella pneumoniae. For the same compound, the MIC in the test on Staphylococcus aureus [2] is greater than 100 µg/mL; against Escherichia coli [3] it was 100 µg/mL (≈ 212 µM); against Proteus vulgaris it was greater than 100 µg/mL; in [4], greater than 100 µg/mL.
Regarding `COc1ccc2cc1Oc1cc(ccc1OC)CCC(NCc1ccccc1)CCCC2` (stereo not drawn), the MIC in [4] lay in the range of 12.5 to 50 µg/mL (≈ 29 to 116 µM).
In the case of `COc1ccc2cc1Oc1cc(ccc1OC)CCC(NC(=O)/C=C/c1ccc(F)cc1)CCCC2` (stereo not drawn), the MIC in the test on Escherichia coli [1], against Proteus mirabilis, in the test on Bacillus anthracis, against Pseudomonas aeruginosa, in the test on Burkholderia cepacia and in the test on Bacillus subtilis (setting [6]) was greater than 100 µg/mL throughout. The MIC against Klebsiella pneumoniae, with Acinetobacter baumannii, with Streptococcus pneumoniae, in the test on Enterococcus faecalis, with Staphylococcus aureus [2] and in the test on Streptococcus pyogenes was greater than 100 µg/mL in each case. Besides, the MIC (in the test on Escherichia coli [3] (setting [7]); in the test with Staphylococcus aureus [5]; in the test with Proteus vulgaris; in [4]) was greater than 100 µg/mL throughout.
As to `COc1ccc2cc1Oc1cc(ccc1OC)CCC(N)CCCC2` (stereo not drawn), the MIC with Escherichia coli [1] is 200 µg/mL (≈ 586 µM); in the test on Proteus mirabilis, greater than 100 µg/mL; with Bacillus anthracis, 100 µg/mL (≈ 293 µM); against Pseudomonas aeruginosa, greater than 100 µg/mL; against Burkholderia cepacia, greater than 100 µg/mL; in the test with Bacillus subtilis (setting [6]), 100 µg/mL (≈ 293 µM). Moreover, the MIC is greater than 100 µg/mL against Klebsiella pneumoniae; 200 µg/mL (≈ 586 µM) in the test with Acinetobacter baumannii; 200 µg/mL (≈ 586 µM) in the test on Streptococcus pneumoniae; 200 µg/mL (≈ 586 µM) in the test with Enterococcus faecalis; 200 µg/mL (≈ 586 µM) in the test with Staphylococcus aureus [2]; 200 µg/mL (≈ 586 µM) in the test with Streptococcus pyogenes. Moreover, the MIC with Escherichia coli [3] (setting [7]) is 100 µg/mL (≈ 293 µM); in the test with Staphylococcus aureus [5], 200 µg/mL (≈ 586 µM); in the test with Proteus vulgaris, greater than 100 µg/mL; in test [4], 200 µg/mL (≈ 586 µM).
As to `CCCCCCNC1CCCCc2ccc(OC)c(c2)Oc2cc(ccc2OC)CC1` (stereo not drawn), the MIC in test [4] is 12.5 to 50 µg/mL (≈ 29.4 to 117 µM).
As to `COc1ccc2cc1Oc1cc(ccc1OC)CCC(OS(C)(=O)=O)CCCC2` (stereo not drawn), the MIC against Escherichia coli [1], with Proteus mirabilis, with Bacillus anthracis, against Pseudomonas aeruginosa, against Burkholderia cepacia and in the test on Bacillus subtilis (setting [6]) was greater than 100 µg/mL throughout. In addition, the minimum inhibitory concentration (MIC) against Klebsiella pneumoniae, in the test on Acinetobacter baumannii, with Streptococcus pneumoniae, in the test with Enterococcus faecalis, in the test on Staphylococcus aureus [2] and in the test on Streptococcus pyogenes was greater than 100 µg/mL each time. For the same compound, the MIC (in the test on Escherichia coli [3] (setting [7]); in the test on Staphylococcus aureus [5]; in the test with Proteus vulgaris; in [4]) was greater than 100 µg/mL throughout.
Take `COc1ccc2cc1Oc1cc(ccc1OC)CCC(NCCN(C)C)CCCC2` (stereo not drawn): the MIC was greater than 100 µg/mL in the test on Escherichia coli [1]; greater than 100 µg/mL in the test with Proteus mirabilis; greater than 100 µg/mL in the test on Bacillus anthracis; greater than 100 µg/mL in the test on Pseudomonas aeruginosa; greater than 100 µg/mL against Burkholderia cepacia; 100 µg/mL (≈ 242 µM) in the test on Bacillus subtilis (setting [6]). Besides, the MIC against Klebsiella pneumoniae, with Acinetobacter baumannii, in the test with Streptococcus pneumoniae, with Enterococcus faecalis, in the test with Staphylococcus aureus [2] and with Streptococcus pyogenes was greater than 100 µg/mL in each case. Also, the MIC in the test with Escherichia coli [3] (setting [7]) is greater than 100 µg/mL; in the test with Staphylococcus aureus [5], greater than 100 µg/mL; against Proteus vulgaris, greater than 100 µg/mL; in test [4] it was 100 µg/mL (≈ 242 µM).
Take `COc1ccc2cc1Oc1cc(ccc1OC)CCC(NCCc1ccc3c(c1)OCO3)CCCC2` (stereo not drawn): the MIC in the test with Escherichia coli [1] is greater than 100 µg/mL; in the test with Proteus mirabilis, greater than 100 µg/mL; in the test with Bacillus anthracis, 50 µg/mL (≈ 102 µM); with Pseudomonas aeruginosa it was greater than 100 µg/mL; in the test on Burkholderia cepacia it was greater than 100 µg/mL; with Bacillus subtilis (setting [6]), 12.5 µg/mL (≈ 25.5 µM). The MIC is greater than 100 µg/mL against Klebsiella pneumoniae; greater than 100 µg/mL in the test on Acinetobacter baumannii; 50 µg/mL (≈ 102 µM) in the test with Streptococcus pneumoniae; 50 µg/mL (≈ 102 µM) in the test with Enterococcus faecalis; 50 µg/mL (≈ 102 µM) in the test with Staphylococcus aureus [2]; 12.5 µg/mL (≈ 25.5 µM) in the test with Streptococcus pyogenes. The MIC is 12.5 µg/mL (≈ 25.5 µM) with Escherichia coli [3] (setting [7]), 25 µg/mL (≈ 51.1 µM) with Staphylococcus aureus [5], greater than 100 µg/mL in the test on Proteus vulgaris and 25 µg/mL (≈ 51.1 µM) in test [4].
For the compound `COc1ccc2cc1Oc1cc(ccc1OC)CCC(NC(=O)NCCc1ccc(F)cc1)CCCC2` (stereo not drawn), the MIC against Escherichia coli [1], against Proteus mirabilis, in the test with Bacillus anthracis, against Pseudomonas aeruginosa, in the test on Burkholderia cepacia and with Bacillus subtilis (setting [6]) was greater than 100 µg/mL in each case. In addition, the MIC in the test with Klebsiella pneumoniae, in the test on Acinetobacter baumannii, with Streptococcus pneumoniae, with Enterococcus faecalis, in the test with Staphylococcus aureus [2] and in the test on Streptococcus pyogenes was greater than 100 µg/mL in each case. The MIC (with Escherichia coli [3] (setting [7]); in the test on Staphylococcus aureus [5]; in the test on Proteus vulgaris; in test [4]) was greater than 100 µg/mL each time.
